# How the values were obtained:
# [1] = tested on: nevus-like pigmented tumors in Tyr::creER, BRAF^ca mice; test: Topical resiquimod gel on pigmented tumor progression in Tyr::creER, BRAFca mice (nevus model); assay type: in vivo, mouse
# Method: FIGS. 1A-1I. […] FIG. 1A) Treatment scheme. […] FIG. 1D) Pigmented lesion in a mouse before treatment. […] FIG. 1F) Histology of tumor treated with vehicle. […] Bars in b-e indicate 6 mm. Bars in f-h indicate 200 μm.
# A majority of nevi and melanomas contain BRAF mutations, particularly the BRAFV600E mutation.
# Mice treated with blank topical gel were used as controls. […] Tumor diameters were measured using calipers every three days.
# [2] = tested on: melanoma in Tyr::creER, BRAF^ca, Phd2^lox/lox mice; test: Topical resiquimod on melanoma progression in Tyr::creER, BRAFca, Phd2lox/lox mice; assay type: in vivo, mouse; details: topical 0.2% twice a week for 6 weeks
# Description: FIGS. 2A-2L. […] FIG. 2A) Treatment scheme. FIG. 2B) Large tumor in a mouse treated with vehicle (n=10). FIG. 2C) Underside of skin filled with tumor. FIGS. 2D and 2E) Histology of melanoma in a control mouse. The dermis is filled with tumor cells. […] FIG. 2G) Underside of skin cleared of tumor. FIG. 2H) Histology of skin in a treated mouse, normal appearing. FIG. 2I) Macrophages with pigment are present in the dermis in a treated mouse. Arrow points to macrophages. FIG. 2J)Tumor growth curve. FIG. 2K) In situ melanoma in control mice. Arrows point to the tumor cells in the epidermis and hair follicle. I) Normal appearing epidermis in treated mice. *indicates p<0.05. Bars in b, c, f and g indicate 6 mm. Bars in d, e, h and I, indicate 200 μm. Bars in k and l indicate 10 μm.
# The Tyr:creER, BRAF^ca, phd2^lox/lox mouse melanoma model was developed in Dr. Xu's lab. Melanoma can be induced with 100% penetrance using topical 4-HT. Lymph node metastasis is frequent in these mice. […] The melanoma in control mice grew and the tumor became very big at day 180 (FIG. 2B). These mice were sacrificed. The underside of skin was occupied completely by tumor (FIG. 2C). Histologically, the dermis was filled entirely by melanoma cells (FIG. 2D and FIG. 2E). […] Histologically, dermal melanoma had regressed (FIG. 2H) and numerous macrophages with pigment were present in the dermis (FIG. 2I), indicating melanoma has regressed. None of the treated mice developed lymph node metastasis.
# [3] = tested on: melanoma in Tyr::creER, BRAF^ca, Pten^lox/lox mice; test: Topical resiquimod gel on melanoma progression in Tyr::creER, BRAFca, Ptenlox/lox mice; assay type: in vivo, mouse
# Description: FIGS. 3A-3I. […] FIG. 3A) Treatment scheme. FIG. 3B) Representative image of a mouse with control treatment (n=15). […] FIG. 3D) Histology of melanoma in a control mouse. […] FIG. 3E) Histology of melanoma in a treated mouse. […] Bars indicate 6 mm in FIG. 3B and FIG. 3C, 400 μm in FIG. 3D and FIG. 3E and 50 μm in FIG. 3H and FIG. 3I.
# FIGS. 4A-4I. […] FIG. 4A) Treatment scheme. […] All measurement was compared to the control. *indicates p<0.05.
# Tumor and spleen tissues were processed and multicolor flow cytometry analysis was performed.
# [4] = tested on: B16-F10 melanoma cells in C57BL/6J mice; test: Topical resiquimod gel in the B16 melanoma model; assay type: in vivo, mouse
# Description: FIGS. 5A-5E. […] FIG. 5A) Treatment scheme. […] Arrow points to the inflammatory cells. FIG. 5E) Fold changes in cytokine and chemokine mRNA expression in the tumor tissues from treated mice compared to control mice. *indicates p<0.05. Bars in d indicate 25 μm.
# Tumor tissues were processed and we measured cytokine and chemokine mRNA expression in the tumor using qRT-PCR.
# [5] = tested on: B16-F10 melanoma cells in RAG-1-deficient mice; test: Resiquimod gel in RAG-1-deficient mice with B16-F10 melanoma; assay type: in vivo, mouse
# Method: (§1) Once these mice developed palpable tumors, resiquimod treatment was administered twice a week. […] CD8 depletion was achieved using anti-CD8 antibody. […]
# [6] = tested on: B16-F10 melanoma cells in CD8 depleted C57 mice; test: Resiquimod gel in CD8 depleted C57 mice with B16-F10 melanoma; assay type: in vivo, mouse
# Method: as §1
# [7] = tested on: T cells from spleen; test: Cytokine release by T cells from spleen after stimulation; assay type: cell-based, mouse; details: resiquimod treated T cells from spleen
# Method: as §1
# [8] = tested on: melanoma in Tyr::creER, BRAF^ca, Pten^lox/lox mice; test: Resiquimod in combination with anti-PD1 therapy in Tyr::creER, BRAFca, Ptenlox/lox mice; assay type: in vivo, mouse; details: 0.2% resiquimod twice a week for 6 weeks; anti-PD1 200 μg i.p. twice a week for 5 weeks
# Description: FIGS. 7A-7G. […] FIG. 7A) Treatment scheme. […] FIG. 7F) Effect of therapies on melanoma growth (n=5 each group). FIG. 7G) Effect of therapies on lymph node metastasis. *indicates p<0.05. **indicates p<0.01. Bars indicate 6 mm.
# [9] = Stability and solubility of resiquimod in ethanol:PBS topical formulation (HPLC); assay type: physicochemical; details: 50:50 ethanol:pbs topical formulation aged for 2 weeks
# [10] = tested on: T cell activation; cytokine induction; details: cited from earlier work
# [11] = treated 3 weeks, flow cytometry of tumor
# [12] = 0.2% resiquimod gel twice a week
# [13] = qRT-PCR, compared to control mice
compound,measurement,setting,value
"CCOCc1nc2c(N)nc3ccccc3c2n1CC(C)(C)O [resiquimod, 1-[4-amino-2-(ethoxymethyl)imidazo[4,5-c]quinolin-1-yl]-2-methylpropan-2-ol]",pigmented lesion growth (tumor diameter),[1]; 0.2% resiquimod topical gel twice a week for six weeks vs blank gel,regressed
same,histology: pigmented tumor cells in the dermis,[1]; 0.2% topical gel twice a week for six weeks,disappeared
same,pigmented tumor cells in the epidermis,"[1]; 0.2% topical gel twice a week for six weeks, data not shown",regressed completely
same,palpable pigmented lesion after treatment,"[1]; different experiment, topical resiquimod for 1 month",disappeared after treatment
same,histology: dermal melanoma,[2],regressed
same,melanoma cells in the epidermis (in situ melanoma),[2],disappeared after treatment
same,treated mice that developed lymph node metastasis,[2],None
same,tumor on underside of skin,[2],significantly less tumors
same,melanoma growth,[2]; started 140 days after induction,inhibited
same,melanoma growth (tumor volume),[3]; resiquimod gel twice a week for 6 weeks vs control vehicle,significantly slowed melanoma growth
same,tumor thickness,[3]; treated 3 weeks,significantly thinner tumors
same,CD45+CD11B+F4/80-Ly6g high MDSCs in the tumor,[3]; [11],decrease
same,PD1+CD8+ T cells,[3]; [11],significantly increased
same,expression of granzyme B in CD8^- T cells,[3]; [11],increased
same,intratumoral CD45+ inflammatory cells,[3]; [11],significant increase
same,number of GranB+CD8+ T cells,[3]; [11],increased
same,number of GranB+CD8+Ki-67+ T cells,[3]; [11],increased
same,mice that developed lymph node metastasis,"[3]; treated 3 weeks, sacrificed on treatment, control: all 5 mice",2 of 5
same,positive lymph nodes per mouse with metastasis,"[3]; treated 3 weeks, control 2-4 per mouse",1
same,histology: infiltration of melanoma through skeletal muscle,[3]; twice a week for 6 weeks,did not infiltrate through the skeletal muscle
same,in situ melanoma in the epidermis,[3]; twice a week for 6 weeks,disappeared after treatment
same,lifespan (survival) of treated mice,[3]; twice a week for 6 weeks,prolonged the lifespan
same,histology: inflammatory cells in the tumor,[4]; [12],more inflammatory cells
same,lifespan (survival) of treated mice,[4]; [12],prolonged the lifespan
same,melanoma growth,[4]; [12],significantly slowed the melanoma growth
same,CCL2 mRNA expression in the tumor,[4]; [13],increased
same,INF-γ mRNA expression in the tumor,[4]; [13],increased
same,TNF-α mRNA expression in the tumor,[4]; [13],increased
same,effect on melanoma growth,"[5]; RAG-1-deficient mice, resiquimod gel twice a week",little effect
same,effect of resiquimod on survival curves,[5]; Rag-1-deficient mice,abolished
same,effect of resiquimod on survival curves,[6]; CD8-depleted mice,abolished
same,effect on melanoma,"[6]; CD8 T cell depleted mice (anti-CD8 antibody), resiquimod twice a week",little effect
same,expression of IFN-γ by T cells after stimulation,[7],increased expression
same,lymph node metastasis (number of positive lymph nodes),[8],significantly reduced
same,melanoma growth (tumor volume),[8],significantly slowed melanoma growth
same,solubility in base formulation,[9],soluble
same,"induction of IFN-α, TNF-α, IL-1, IL-6, IL-8 and IL-12 compared with imiquimod",[10],more potent inducer

# Source: US11179385B2 (THE TRUSTEES OF THE UNIVERSITY OF PENNSYLVANIA, priority 2015, dated 2021)
